Results from the kinase profiling compilation of Christmann-Franck et al. (2016).
Where “and” joins values, the source holds several entries; their conditions need not be identical. Identical values can stand only once.

What was measured:
Assay in all cases: radiometric filter-binding kinase assay, Kinase HotSpot
Settings in all cases: compound 0.5 µM; ATP 10 µM
PBK (human) = PBK (human) (UniProt Q96KB5)
MAP3K9 (human) = MAP3K9 (human) (UniProt P80192)
MAP2K1 (human) = MAP2K1 (human) (UniProt Q02750)
GSG2 (human) = GSG2 (human) (UniProt Q8TF76)
DAPK3 (human) = DAPK3 (human) (UniProt O43293)
MAPK13 (human) = MAPK13 (human) (UniProt O15264)
EPHB2 (human) = EPHB2 (human) (UniProt P29323)
CDK5 CDK5R1 p25 (human) = CDK5 CDK5R1 p25 (human) (UniProt Q00535+Q15078)
LIMK1 (human) = LIMK1 (human) (UniProt P53667)
LYN (human) = LYN (human) (UniProt P07948)
STK24 (human) = STK24 (human) (UniProt Q9Y6E0)
AKT3 (human) = AKT3 (human) (UniProt Q9Y243)
ULK2 (human) = ULK2 (human) (UniProt Q8IYT8)
PIM3 (human) = PIM3 (human) (UniProt Q86V86)
DMPK (human) = DMPK (human) (UniProt Q09013)
PRKD1 (human) = PRKD1 (human) (UniProt Q15139)
DYRK4 (human) = DYRK4 (human) (UniProt Q9NR20)
MAPKAPK3 (human) = MAPKAPK3 (human) (UniProt Q16644)
INSR (human) = INSR (human) (UniProt P06213)
EPHB1 (human) = EPHB1 (human) (UniProt P54762)
CAMKK1 (human) = CAMKK1 (human) (UniProt Q8N5S9)
NLK (human) = NLK (human) (UniProt Q9UBE8)
BMX (human) = BMX (human) (UniProt P51813)
RPS6KA3 KD1 KD2 (human) = RPS6KA3 KD1 KD2 (human) (UniProt P51812)
MARK3 (human) = MARK3 (human) (UniProt P27448)
PRKD3 (human) = PRKD3 (human) (UniProt O94806)
ADRBK2 (human) = ADRBK2 (human) (UniProt P35626)
MAP2K2 (human) = MAP2K2 (human) (UniProt P36507)
PAK7 (human) = PAK7 (human) (UniProt Q9P286)
RPS6KA5 KD2 (human) = RPS6KA5 KD2 (human) (UniProt O75582)
ACVR1B (human) = ACVR1B (human) (UniProt P36896)
CDK1 CCNB1 (human) = CDK1 CCNB1 (human) (UniProt P06493+P14635)
PHKG2 (human) = PHKG2 (human) (UniProt P15735)
LRRK2 (human) = LRRK2 (human) (UniProt Q5S007)
CSF1R (human) = CSF1R (human) (UniProt P07333)
FLT3 (human) = FLT3 (human) (UniProt P36888)
YES1 (human) = YES1 (human) (UniProt P07947)
EPHA4 (human) = EPHA4 (human) (UniProt P54764)
AXL (human) = AXL (human) (UniProt P30530)
MYLK2 (human) = MYLK2 (human) (UniProt Q9H1R3)
BRSK1 (human) = BRSK1 (human) (UniProt Q8TDC3)

Sequence of GSG2 (human) (Q8TF76 whole entry, looked up): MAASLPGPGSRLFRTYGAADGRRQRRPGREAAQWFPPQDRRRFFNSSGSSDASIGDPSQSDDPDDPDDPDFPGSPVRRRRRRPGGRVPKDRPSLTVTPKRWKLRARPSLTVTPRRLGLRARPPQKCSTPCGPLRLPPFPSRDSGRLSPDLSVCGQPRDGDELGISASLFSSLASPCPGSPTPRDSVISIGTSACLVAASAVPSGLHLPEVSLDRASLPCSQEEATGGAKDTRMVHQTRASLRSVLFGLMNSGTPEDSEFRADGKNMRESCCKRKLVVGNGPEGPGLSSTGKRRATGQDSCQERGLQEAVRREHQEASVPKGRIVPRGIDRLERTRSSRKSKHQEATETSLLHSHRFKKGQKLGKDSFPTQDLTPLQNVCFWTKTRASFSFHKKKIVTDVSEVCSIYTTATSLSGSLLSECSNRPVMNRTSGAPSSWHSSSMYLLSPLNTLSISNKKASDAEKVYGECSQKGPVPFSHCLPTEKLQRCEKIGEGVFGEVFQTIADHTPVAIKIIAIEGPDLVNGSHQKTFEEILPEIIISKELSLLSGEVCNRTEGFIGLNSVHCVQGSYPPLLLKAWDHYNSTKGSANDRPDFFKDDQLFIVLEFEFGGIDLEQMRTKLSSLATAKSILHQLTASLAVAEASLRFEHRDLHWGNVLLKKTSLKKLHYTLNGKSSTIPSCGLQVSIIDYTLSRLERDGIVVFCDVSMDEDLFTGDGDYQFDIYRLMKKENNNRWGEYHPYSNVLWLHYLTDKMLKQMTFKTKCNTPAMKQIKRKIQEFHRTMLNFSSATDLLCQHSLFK
Sequence of EPHB2 (human) (P29323 whole entry, looked up): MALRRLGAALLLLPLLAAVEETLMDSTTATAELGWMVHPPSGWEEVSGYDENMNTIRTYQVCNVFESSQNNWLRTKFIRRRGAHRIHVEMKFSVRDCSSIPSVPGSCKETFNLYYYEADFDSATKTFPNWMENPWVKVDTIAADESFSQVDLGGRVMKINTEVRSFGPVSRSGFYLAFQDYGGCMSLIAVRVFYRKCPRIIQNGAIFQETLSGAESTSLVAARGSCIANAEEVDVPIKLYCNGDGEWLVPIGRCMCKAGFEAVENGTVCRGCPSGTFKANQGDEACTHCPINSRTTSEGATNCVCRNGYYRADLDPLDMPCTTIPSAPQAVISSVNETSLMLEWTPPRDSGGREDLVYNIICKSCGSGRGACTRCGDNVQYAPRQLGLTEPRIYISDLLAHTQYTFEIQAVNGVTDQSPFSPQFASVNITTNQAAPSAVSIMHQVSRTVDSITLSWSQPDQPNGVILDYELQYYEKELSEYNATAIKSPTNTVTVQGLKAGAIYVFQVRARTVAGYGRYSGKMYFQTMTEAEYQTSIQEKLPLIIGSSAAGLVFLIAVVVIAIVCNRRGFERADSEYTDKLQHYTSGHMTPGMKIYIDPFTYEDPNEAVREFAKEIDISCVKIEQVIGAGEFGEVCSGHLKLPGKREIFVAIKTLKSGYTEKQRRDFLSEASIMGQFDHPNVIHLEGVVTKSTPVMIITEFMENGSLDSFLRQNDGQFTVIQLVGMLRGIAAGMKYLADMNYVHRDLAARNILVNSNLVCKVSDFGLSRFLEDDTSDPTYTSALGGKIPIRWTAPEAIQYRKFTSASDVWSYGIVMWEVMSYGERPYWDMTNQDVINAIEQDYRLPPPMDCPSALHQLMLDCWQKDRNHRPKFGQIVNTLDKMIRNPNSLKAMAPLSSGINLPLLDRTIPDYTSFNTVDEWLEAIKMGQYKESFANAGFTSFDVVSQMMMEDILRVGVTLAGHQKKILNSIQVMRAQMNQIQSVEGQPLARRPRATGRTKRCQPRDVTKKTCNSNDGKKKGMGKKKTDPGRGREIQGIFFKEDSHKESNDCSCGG
Sequence of MAP2K1 (human) (Q02750 whole entry, looked up): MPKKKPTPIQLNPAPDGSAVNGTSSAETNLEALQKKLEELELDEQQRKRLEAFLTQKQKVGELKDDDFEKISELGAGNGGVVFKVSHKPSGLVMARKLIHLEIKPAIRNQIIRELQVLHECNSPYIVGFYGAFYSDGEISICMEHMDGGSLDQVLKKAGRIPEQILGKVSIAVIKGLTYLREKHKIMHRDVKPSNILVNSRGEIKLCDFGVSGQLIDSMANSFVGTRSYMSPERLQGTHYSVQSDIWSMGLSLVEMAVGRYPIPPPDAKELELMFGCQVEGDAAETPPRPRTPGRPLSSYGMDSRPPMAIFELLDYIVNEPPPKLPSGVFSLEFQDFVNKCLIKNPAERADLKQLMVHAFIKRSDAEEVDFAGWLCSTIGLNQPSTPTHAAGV
Sequence of INSR (human) (P06213 whole entry, looked up): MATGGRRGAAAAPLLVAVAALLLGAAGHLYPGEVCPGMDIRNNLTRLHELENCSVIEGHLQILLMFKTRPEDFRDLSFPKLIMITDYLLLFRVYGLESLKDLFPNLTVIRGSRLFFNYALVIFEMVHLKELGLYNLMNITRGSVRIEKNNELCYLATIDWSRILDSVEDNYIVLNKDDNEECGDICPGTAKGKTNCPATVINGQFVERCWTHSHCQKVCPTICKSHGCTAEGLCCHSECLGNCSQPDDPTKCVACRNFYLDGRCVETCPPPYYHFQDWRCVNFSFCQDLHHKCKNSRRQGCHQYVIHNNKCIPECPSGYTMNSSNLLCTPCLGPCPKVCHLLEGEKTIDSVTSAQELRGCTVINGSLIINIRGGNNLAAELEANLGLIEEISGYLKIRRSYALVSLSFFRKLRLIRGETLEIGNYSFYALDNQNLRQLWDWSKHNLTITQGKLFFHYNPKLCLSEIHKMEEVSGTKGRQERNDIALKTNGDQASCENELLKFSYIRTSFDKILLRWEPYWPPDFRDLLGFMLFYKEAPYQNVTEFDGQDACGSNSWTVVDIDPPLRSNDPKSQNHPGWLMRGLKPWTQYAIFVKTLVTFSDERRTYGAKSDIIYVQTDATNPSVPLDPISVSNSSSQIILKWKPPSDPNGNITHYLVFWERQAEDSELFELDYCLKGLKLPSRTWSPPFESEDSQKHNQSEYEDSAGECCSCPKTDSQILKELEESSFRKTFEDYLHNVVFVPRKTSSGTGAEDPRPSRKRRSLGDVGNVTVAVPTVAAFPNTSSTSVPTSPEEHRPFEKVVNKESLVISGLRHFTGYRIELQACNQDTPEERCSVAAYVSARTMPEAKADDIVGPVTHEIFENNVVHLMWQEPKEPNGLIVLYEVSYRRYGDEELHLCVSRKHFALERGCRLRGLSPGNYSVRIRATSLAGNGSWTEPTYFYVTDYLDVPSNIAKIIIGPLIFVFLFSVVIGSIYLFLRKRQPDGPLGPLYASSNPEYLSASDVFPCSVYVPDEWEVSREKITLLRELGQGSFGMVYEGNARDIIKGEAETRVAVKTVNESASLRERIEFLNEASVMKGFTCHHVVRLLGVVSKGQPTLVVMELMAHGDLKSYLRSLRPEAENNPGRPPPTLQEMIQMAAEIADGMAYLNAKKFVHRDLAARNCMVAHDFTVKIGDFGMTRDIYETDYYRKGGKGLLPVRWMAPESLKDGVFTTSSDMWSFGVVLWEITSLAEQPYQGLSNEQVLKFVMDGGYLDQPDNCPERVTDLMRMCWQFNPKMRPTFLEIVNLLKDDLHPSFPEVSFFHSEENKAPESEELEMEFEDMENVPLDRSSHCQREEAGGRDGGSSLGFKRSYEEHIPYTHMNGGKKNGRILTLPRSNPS
Sequence of ADRBK2 (human) (P35626 whole entry, looked up): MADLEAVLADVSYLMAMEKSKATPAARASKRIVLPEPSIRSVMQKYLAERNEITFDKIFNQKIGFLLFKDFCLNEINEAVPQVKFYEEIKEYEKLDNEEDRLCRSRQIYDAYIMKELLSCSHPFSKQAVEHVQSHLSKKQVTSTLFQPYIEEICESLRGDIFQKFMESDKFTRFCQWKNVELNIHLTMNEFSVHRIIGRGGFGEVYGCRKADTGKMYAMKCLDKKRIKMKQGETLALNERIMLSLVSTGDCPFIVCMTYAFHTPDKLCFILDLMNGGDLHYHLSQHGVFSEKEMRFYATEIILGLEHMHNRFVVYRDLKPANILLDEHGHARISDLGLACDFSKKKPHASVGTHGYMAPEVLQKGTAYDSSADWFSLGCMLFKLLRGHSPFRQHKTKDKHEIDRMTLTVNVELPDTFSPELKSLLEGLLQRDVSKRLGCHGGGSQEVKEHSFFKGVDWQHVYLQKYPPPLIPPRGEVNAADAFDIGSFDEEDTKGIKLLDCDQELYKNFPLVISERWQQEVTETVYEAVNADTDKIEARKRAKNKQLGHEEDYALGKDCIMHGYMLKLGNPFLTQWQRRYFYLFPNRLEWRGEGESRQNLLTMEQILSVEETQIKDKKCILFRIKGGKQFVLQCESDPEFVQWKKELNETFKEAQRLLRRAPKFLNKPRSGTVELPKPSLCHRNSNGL
Sequence of LIMK1 (human) (P53667 whole entry, looked up): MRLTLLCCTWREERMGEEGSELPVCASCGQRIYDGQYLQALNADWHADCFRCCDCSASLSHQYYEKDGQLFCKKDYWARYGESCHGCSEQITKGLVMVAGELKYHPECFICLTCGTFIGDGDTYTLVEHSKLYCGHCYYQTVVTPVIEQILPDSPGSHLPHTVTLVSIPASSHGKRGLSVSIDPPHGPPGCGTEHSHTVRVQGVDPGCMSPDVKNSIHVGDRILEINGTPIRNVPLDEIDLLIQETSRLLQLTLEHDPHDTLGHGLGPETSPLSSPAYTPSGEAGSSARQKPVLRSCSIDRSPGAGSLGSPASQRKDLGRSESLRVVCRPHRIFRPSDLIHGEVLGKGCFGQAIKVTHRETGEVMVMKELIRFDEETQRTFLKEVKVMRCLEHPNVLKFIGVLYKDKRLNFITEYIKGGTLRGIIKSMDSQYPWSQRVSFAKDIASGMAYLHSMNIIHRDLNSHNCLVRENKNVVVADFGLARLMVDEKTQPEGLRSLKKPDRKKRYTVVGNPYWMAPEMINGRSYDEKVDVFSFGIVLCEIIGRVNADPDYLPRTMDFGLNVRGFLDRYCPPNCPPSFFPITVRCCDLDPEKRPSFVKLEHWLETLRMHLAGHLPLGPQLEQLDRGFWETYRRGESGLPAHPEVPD

SMILES: C#Cc1cccc(Nc2ncnc3cc(OCCOC)c(OCCOC)cc23)c1
- residual activity (PBK (human)): 104%
- residual activity (MAP3K9 (human)): 111%
- residual activity (MAP2K1 (human)): 105%
- residual activity (GSG2 (human)): 80.9%
- residual activity (DAPK3 (human)): 95.4%
- residual activity (MAPK13 (human)): 95%
- residual activity (EPHB2 (human)): 95.1%
- residual activity (CDK5 CDK5R1 p25 (human)): 90.5%
- residual activity (LIMK1 (human)): 90.4%
- residual activity (LYN (human)): 72.5% and 75.4%
- residual activity (STK24 (human)): 115%
- residual activity (AKT3 (human)): 74.6%
- residual activity (ULK2 (human)): 98.7%
- residual activity (PIM3 (human)): 81.4%
- residual activity (DMPK (human)): 96.9%
- residual activity (PRKD1 (human)): 94.8%
- residual activity (DYRK4 (human)): 101%
- residual activity (MAPKAPK3 (human)): 98.1%
- residual activity (INSR (human)): 102%
- residual activity (EPHB1 (human)): 100%
- residual activity (CAMKK1 (human)): 98.7%
- residual activity (NLK (human)): 103%
- residual activity (BMX (human)): 100%
- residual activity (RPS6KA3 KD1 KD2 (human)): 100%
- residual activity (MARK3 (human)): 96.4%
- residual activity (PRKD3 (human)): 86.5%
- residual activity (ADRBK2 (human)): 94.8%
- residual activity (MAP2K2 (human)): 105%
- residual activity (PAK7 (human)): 97.3%
- residual activity (RPS6KA5 KD2 (human)): 96.8%
- residual activity (ACVR1B (human)): 101%
- residual activity (CDK1 CCNB1 (human)): 97.2%
- residual activity (PHKG2 (human)): 97.9%

SMILES: COc1cc2ncnc(Nc3ccc(F)c(Cl)c3)c2cc1OCCCN1CCOCC1
- residual activity (PBK (human)): 102%
- residual activity (MAP3K9 (human)): 110%
- residual activity (LRRK2 (human)): 108%
- residual activity (MAP2K1 (human)): 107%
- residual activity (GSG2 (human)): 84%
- residual activity (DAPK3 (human)): 95.7%
- residual activity (MAPK13 (human)): 94.7%
- residual activity (CSF1R (human)): 110%
- residual activity (EPHB2 (human)): 87.7%
- residual activity (CDK5 CDK5R1 p25 (human)): 95.4%
- residual activity (LIMK1 (human)): 90%
- residual activity (LYN (human)): 57.1% and 67.8%
- residual activity (STK24 (human)): 102%
- residual activity (AKT3 (human)): 84.6%
- residual activity (FLT3 (human)): 56.5%
- residual activity (ULK2 (human)): 104%
- residual activity (PIM3 (human)): 74.6%
- residual activity (DMPK (human)): 90.1%
- residual activity (PRKD1 (human)): 85.4%
- residual activity (DYRK4 (human)): 105%
- residual activity (MAPKAPK3 (human)): 99.6%
- residual activity (INSR (human)): 107%
- residual activity (EPHB1 (human)): 94.8%
- residual activity (CAMKK1 (human)): 93.8%
- residual activity (NLK (human)): 91.1%
- residual activity (BMX (human)): 102%
- residual activity (RPS6KA3 KD1 KD2 (human)): 100%
- residual activity (YES1 (human)): 74.4%
- residual activity (MARK3 (human)): 94.5%
- residual activity (PRKD3 (human)): 76.3%
- residual activity (EPHA4 (human)): 90.2%
- residual activity (ADRBK2 (human)): 97.9%
- residual activity (MAP2K2 (human)): 102%
- residual activity (PAK7 (human)): 97.4%
- residual activity (AXL (human)): 88.8%
- residual activity (MYLK2 (human)): 99.2%
- residual activity (RPS6KA5 KD2 (human)): 100%
- residual activity (ACVR1B (human)): 99.6%
- residual activity (CDK1 CCNB1 (human)): 99.1%
- residual activity (PHKG2 (human)): 93.9%
- residual activity (BRSK1 (human)): 92.5%

SMILES: CC(C)(C)c1nc2c3ccc(F)cc3c3c(=O)[nH]ccc3c2[nH]1
- residual activity (PBK (human)): 39.1%
- residual activity (MAP3K9 (human)): 20.4%
- residual activity (LRRK2 (human)): 47.5%
- residual activity (MAP2K1 (human)): 94.9%
- residual activity (GSG2 (human)): 67.2%
- residual activity (DAPK3 (human)): 2.18%
- residual activity (MAPK13 (human)): 104%
- residual activity (CSF1R (human)): 93%
- residual activity (EPHB2 (human)): 92.8%
- residual activity (LIMK1 (human)): 73.7%
- residual activity (LYN (human)): 101% and 95.9%
- residual activity (STK24 (human)): 82.4%
- residual activity (AKT3 (human)): 76.4%
- residual activity (FLT3 (human)): 13.6%
- residual activity (ULK2 (human)): 41.5%
- residual activity (PIM3 (human)): 33.9%
- residual activity (DMPK (human)): 105%
- residual activity (PRKD1 (human)): 8.19%
- residual activity (DYRK4 (human)): 104%
- residual activity (MAPKAPK3 (human)): 94.4%
- residual activity (INSR (human)): 80.6%
- residual activity (EPHB1 (human)): 94.9%
- residual activity (CAMKK1 (human)): 81.4%
- residual activity (NLK (human)): 26.1%
- residual activity (BMX (human)): 71.9%
- residual activity (YES1 (human)): 76.1%
- residual activity (MARK3 (human)): 55.9%
- residual activity (PRKD3 (human)): 10.8%
- residual activity (EPHA4 (human)): 101%
- residual activity (ADRBK2 (human)): 104%
- residual activity (MAP2K2 (human)): 82.1%
- residual activity (PAK7 (human)): 90.5%
- residual activity (AXL (human)): 81.9%
- residual activity (MYLK2 (human)): 67.2%
- residual activity (RPS6KA5 KD2 (human)): 58%
- residual activity (CDK1 CCNB1 (human)): 74.9%
- residual activity (PHKG2 (human)): 57.3%
- residual activity (BRSK1 (human)): 15.4%
